Test results taken from PubChem BioAssay AID248 (DTP/NCI, 2004).
Where “and” joins values, the source holds several entries; their conditions need not be identical. Equal entries are not always repeated. Toxic doses and inconclusive results are not listed. Rule as the data show it: active = T/C of 150% or more; inactive = T/C below 125%.

Test system: L1210 leukemia ip in BDF1 mice, survival T/C
Test: NCI In Vivo Anticancer Drug Screen. Data for tumor model L1210 Leukemia (intraperitoneal) in B6D2F1 (BDF1) mice
Conditions: endpoint: mean survival time, higher = longer survival
Procedure, shortened: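 Ratio derived from survival: compound-dosed mice over vehicle-dosed mice, all bearing a transplantable tumor.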

[1] = dose: 50.0 mg/kg/injection, schedule: Q01DX009 (ip), vehicle: saline with Tween-80
[2] = dose: 100.0 mg/kg/injection, schedule: Q01DX009 (ip), vehicle: Klucel (hydroxypropylcellulose) (HPC)
[3] = dose: 100.0 mg/kg/injection, schedule: Q01DX009 (ip), vehicle: saline with Tween-80
[4] = dose: 100.0 mg/kg/injection, schedule: Q04DX002 (ip), vehicle: Klucel (hydroxypropylcellulose) (HPC)
[5] = dose: 200.0 mg/kg/injection, schedule: Q01DX009 (ip), vehicle: Klucel (hydroxypropylcellulose) (HPC)
[6] = dose: 200.0 mg/kg/injection, schedule: Q01DX009 (ip), vehicle: saline with Tween-80
[7] = dose: 200.0 mg/kg/injection, schedule: Q04DX002 (ip), vehicle: Klucel (hydroxypropylcellulose) (HPC)
[8] = dose: 400.0 mg/kg/injection, schedule: Q01DX009 (ip), vehicle: Klucel (hydroxypropylcellulose) (HPC)
[9] = dose: 400.0 mg/kg/injection, schedule: Q04DX002 (ip), vehicle: Klucel (hydroxypropylcellulose) (HPC)
[10] = dose: 100.0 mg/kg/injection, schedule: Q04DX002 (ip), vehicle: saline with Tween-80
[11] = dose: 100.0 mg/kg/injection, schedule: Q04DX003 (ip), vehicle: saline with Tween-80
[12] = dose: 200.0 mg/kg/injection, schedule: Q04DX002 (ip), vehicle: saline with Tween-80
[13] = dose: 200.0 mg/kg/injection, schedule: Q04DX003 (ip), vehicle: saline with Tween-80
[14] = dose: 400.0 mg/kg/injection, schedule: Q01DX009 (ip), vehicle: saline with Tween-80
[15] = dose: 400.0 mg/kg/injection, schedule: Q04DX002 (ip), vehicle: saline with Tween-80
[16] = dose: 400.0 mg/kg/injection, schedule: Q04DX003 (ip), vehicle: saline with Tween-80
[17] = dose: 75.0 mg/kg/injection, schedule: Q01DX001 (ip), vehicle: carboxymethylcellulose (CMC)

Measured: T/C

Nc1nc(N)nc(-c2ccccc2)n1
inactive: [1] 94 % of control | [2] 111 % of control | [3] 94 % of control | [4] 114 % of control | [5] 111 % of control | [6] 97 % of control | [7] 107 % of control | [8] 93 % of control | [9] 88 % of control

COc1ccc(Cl)cc1NC(=O)OCC(Cl)(Cl)Cl
inactive: dose: 100.0 mg/kg/injection, schedule: Q01DX001 (ip), vehicle: saline with Tween-80 95 % of control | [3] 100 % of control and 102 % of control | [10] 93 % of control and 91 % of control | [11] 103 % of control | dose: 200.0 mg/kg/injection, schedule: Q01DX001 (ip), vehicle: saline with Tween-80 94 % of control | [6] 96 % of control and 115 % of control | [12] 94 % of control and 101 % of control | [13] 94 % of control | dose: 400.0 mg/kg/injection, schedule: Q01DX001 (ip), vehicle: saline with Tween-80 94 % of control | [14] 100 % of control and 91 % of control | [15] 97 % of control and 108 % of control | [16] 97 % of control

O=C(C[n+]1ccc(/C=N\O)cc1)c1ccc(-c2ccc(C(=O)C[n+]3ccc(/C=N/O)cc3)cc2)cc1
inactive: [4] 103 % of control | [7] 100 % of control | [9] 92 % of control

CC(=O)NC(C=O)C(OC(C)=O)C(OC(C)=O)C(COC(C)=O)OC(C)=O (centres undefined)
inactive: [10] 100 % of control | [12] 107 % of control | [15] 96 % of control

Cc1cccc(Cl)c1NC(=O)Nc1onc(C)c1C
inactive: [2] 103 % of control | [5] 100 % of control | [8] 92 % of control

Cc1ccc2c(c1)CCCN2C=O
inactive: [1] 95 % of control | [3] 93 % of control | [11] 102 % of control | [6] 102 % of control | [13] 94 % of control

CCN1CCC(c2ccccc2)(c2ccccc2)C1=N
inactive: [17] 89 % of control

O=[n+]1c2c(n([O-])c3ccccc31)-c1cccc3cccc-2c13
inactive: dose: 50.0 mg/kg/injection, schedule: Q04DX003 (ip), vehicle: saline 96 % of control | dose: 100.0 mg/kg/injection, schedule: Q01DX001 (ip), vehicle: saline 88 % of control | dose: 100.0 mg/kg/injection, schedule: Q04DX003 (ip), vehicle: saline 93 % of control | dose: 125.0 mg/kg/injection, schedule: Q01DX Z (ip), vehicle: methylcellulose (MC) 98 % of control | dose: 200.0 mg/kg/injection, schedule: Q01DX001 (ip), vehicle: saline 94 % of control | dose: 200.0 mg/kg/injection, schedule: Q04DX003 (ip), vehicle: saline 93 % of control

COC(=O)C1C2CC(C3OC23)C1C(=O)OC (centres undefined)
inactive: dose: 100.0 mg/kg/injection, schedule: Q01DX009 (ip), vehicle: other 110 % of control | dose: 200.0 mg/kg/injection, schedule: Q01DX009 (ip), vehicle: other 108 % of control | dose: 400.0 mg/kg/injection, schedule: Q01DX009 (ip), vehicle: other 93 % of control

C=CCN(CC#N)CC#N
inactive: dose: 5.0 mg/kg/injection, schedule: Q04DX003 (ip), vehicle: Klucel (hydroxypropylcellulose) (HPC) 98 % of control | dose: 10.0 mg/kg/injection, schedule: Q04DX003 (ip), vehicle: Klucel (hydroxypropylcellulose) (HPC) 100 % of control (2×) and 86 % of control

CC(C)(C)c1nc2cc(Cl)c(Cl)cc2[nH]1
inactive: dose: 75.0 mg/kg/injection, schedule: Q01DX001 (ip), vehicle: other 102 % of control | dose: 75.0 mg/kg/injection, schedule: Q01DX009 (ip), vehicle: saline with Tween-80 96 % of control | dose: 75.0 mg/kg/injection, schedule: Q04DX003 (ip), vehicle: saline with Tween-80 103 % of control | dose: 150.0 mg/kg/injection, schedule: Q01DX001 (ip), vehicle: other 96 % of control | dose: 150.0 mg/kg/injection, schedule: Q01DX009 (ip), vehicle: saline with Tween-80 90 % of control | dose: 150.0 mg/kg/injection, schedule: Q04DX003 (ip), vehicle: saline with Tween-80 110 % of control | dose: 300.0 mg/kg/injection, schedule: Q01DX001 (ip), vehicle: other 109 % of control | dose: 300.0 mg/kg/injection, schedule: Q01DX009 (ip), vehicle: saline with Tween-80 103 % of control | dose: 300.0 mg/kg/injection, schedule: Q04DX003 (ip), vehicle: saline with Tween-80 107 % of control

C[n+]1ccccc1NC(=O)c1ccc(C(=O)Nc2cccc[n+]2C)cc1
inactive: dose: 7.5 mg/kg/injection, schedule: Q01DX Z (ip), vehicle: saline 98 % of control | dose: 15.0 mg/kg/injection, schedule: Q01DX Z (ip), vehicle: saline 100 % of control | dose: 30.0 mg/kg/injection, schedule: Q01DX Z (ip), vehicle: saline 87 % of control | dose: 120.0 mg/kg/injection, schedule: Q01DX Z (ip), vehicle: saline 87 % of control | dose: 240.0 mg/kg/injection, schedule: Q01DX Z (ip), vehicle: saline 91 % of control

COc1cc(CCl)c(CCl)c(OC)c1OC
inactive: [17] 96 % of control | dose: 150.0 mg/kg/injection, schedule: Q01DX001 (ip), vehicle: carboxymethylcellulose (CMC) 95 % of control | dose: 300.0 mg/kg/injection, schedule: Q01DX001 (ip), vehicle: carboxymethylcellulose (CMC) 93 % of control

O=C(c1ccccc1)c1c(-c2ccccc2)c(C(=O)c2ccccc2)c2ccccc2c1Cl
inactive: dose: 6.25 mg/kg/injection, schedule: Q01DX009 (ip), vehicle: water 96 % of control | dose: 12.5 mg/kg/injection, schedule: Q01DX009 (ip), vehicle: water 97 % of control | dose: 25.0 mg/kg/injection, schedule: Q01DX009 (ip), vehicle: water 94 % of control and 117 % of control | dose: 50.0 mg/kg/injection, schedule: Q01DX009 (ip), vehicle: water 94 % of control and 97 % of control | dose: 100.0 mg/kg/injection, schedule: Q01DX009 (ip), vehicle: water 101 % of control | dose: 200.0 mg/kg/injection, schedule: Q01DX009 (ip), vehicle: water 101 % of control | dose: 400.0 mg/kg/injection, schedule: Q01DX009 (ip), vehicle: water 97 % of control

O=C(O)c1ccc(/C=N/NC(=O)C(O)(c2ccccc2)c2ccccc2)cc1
inactive: dose: 100.0 mg/kg/injection, schedule: Q01DX001 (ip), vehicle: carboxymethylcellulose (CMC) 108 % of control | dose: 200.0 mg/kg/injection, schedule: Q01DX001 (ip), vehicle: carboxymethylcellulose (CMC) 108 % of control | dose: 400.0 mg/kg/injection, schedule: Q01DX001 (ip), vehicle: carboxymethylcellulose (CMC) 108 % of control

O=C(O)[C@H]1CC2CCC1C2 (some centres undefined)
inactive: [11] 98 % of control | [13] 102 % of control | [16] 93 % of control

O=C1C(Br)C2CCC1C2C(=O)O (centres undefined)
inactive: [3] 103 % of control | [11] 87 % of control | [6] 89 % of control and 96 % of control | [13] 92 % of control | [14] 100 % of control and 94 % of control | [16] 101 % of control

NC1=Nc2ccccc2CS1
inactive: dose: 18.8 mg/kg/injection, schedule: Q04DX003 (ip), vehicle: saline 95 % of control | dose: 37.5 mg/kg/injection, schedule: Q04DX003 (ip), vehicle: saline 101 % of control

CC(Cc1ccccc1)NCCc1c2ccccc2nc2ccccc12 (centres undefined)
inactive: dose: 12.5 mg/kg/injection, schedule: Q01DX009 (ip), vehicle: Klucel (hydroxypropylcellulose) (HPC) 101 % of control | dose: 25.0 mg/kg/injection, schedule: Q01DX009 (ip), vehicle: Klucel (hydroxypropylcellulose) (HPC) 102 % of control | dose: 50.0 mg/kg/injection, schedule: Q01DX009 (ip), vehicle: Klucel (hydroxypropylcellulose) (HPC) 98 % of control | [2] 104 % of control | [5] 91 % of control

COc1ccc2[nH]c3c(c2c1)CSc1ccccc1-3
inactive: [2] 110 % of control | [5] 104 % of control | [8] 94 % of control

CC(=O)COc1cccc2ccccc12
inactive: dose: 100.0 mg/kg/injection, schedule: Q01DX009 (ip), vehicle: gum acacia 100 % of control | dose: 200.0 mg/kg/injection, schedule: Q01DX009 (ip), vehicle: gum acacia 99 % of control | dose: 400.0 mg/kg/injection, schedule: Q01DX009 (ip), vehicle: gum acacia 97 % of control

CCCCS(=O)(=O)Oc1ccc(N)c([N+](=O)[O-])c1
inactive: [11] 101 % of control | [13] 101 % of control | [16] 88 % of control
